Assay results: US8664257B2, “Oxygen-substituted 3-heteroaroylamino-propionic acid derivatives and their use as pharmaceuticals” (Sanofi, priority 2010, dated 2014)
Read-outs that look alike come from different tables or passages of the source. Each block holds one compound with its values, some of them ahead of it.

Target: T1, Recombinant human cathepsin A (Homo sapiens, UniProt P10619)
T1 construct: Recombinant human cathepsin A (residues 29-480, with a C-terminal 10-His tag); 10-His (C); purchased R&D Systems 1049-SE
T1 sequence (P10619 29-312 limits assumed): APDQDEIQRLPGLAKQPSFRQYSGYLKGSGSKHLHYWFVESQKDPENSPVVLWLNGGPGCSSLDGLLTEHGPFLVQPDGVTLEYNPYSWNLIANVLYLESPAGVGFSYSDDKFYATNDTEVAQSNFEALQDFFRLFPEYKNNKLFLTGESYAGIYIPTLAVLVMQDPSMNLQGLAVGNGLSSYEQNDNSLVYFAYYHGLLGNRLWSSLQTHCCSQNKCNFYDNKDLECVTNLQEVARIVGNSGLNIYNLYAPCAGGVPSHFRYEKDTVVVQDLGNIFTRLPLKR
T1 sequence (P10619 327-480 limits assumed): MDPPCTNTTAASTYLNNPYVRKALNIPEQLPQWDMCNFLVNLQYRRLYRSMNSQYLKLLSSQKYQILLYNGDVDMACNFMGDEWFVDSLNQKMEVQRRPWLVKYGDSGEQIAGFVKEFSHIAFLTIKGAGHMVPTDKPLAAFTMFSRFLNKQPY
Assay: Cathepsin A inhibitory activity
Assay type: biochemical
How it was run: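 Read-out was microfluidic separation of cleaved vs. uncleaved Bodipy FL-bradykinin (2 μM), giving turnover, % inhibition and IC50. Compound and 833 ng/ml enzyme met for 15 min RT in pH 5.5 MES/DTT before substrate (15 min RT). The 29-480 His-tagged human enzyme was first activated by cathepsin L, then E-64 (10 μM).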

[1] = read-out: Activity (2): Cathepsin A inhibitory activity (IC50 class)
[2] = recombinant human cathepsin A 833 ng/ml, Bodipy FL-labeled bradykinin 2 μM, pH 5.5, read-out: CATH-A IC50
[3] = recombinant human cathepsin A, read-out: Activity (2): Cathepsin A inhibitory activity, IC50 class
[4] = read-out: Activity (2): Cathepsin A inhibitory activity, IC50 class
[5] = pharmacological test "Cathepsin A inhibitory activity", IC50 given as class A/B/C, read-out: Activity (2): Cathepsin A inhibitory activity, IC50 class

SMILES: COc1ccc(F)cc1C(CC(=O)O)NC(=O)c1cc(O)n(-c2ccccc2Cl)n1 (centres unmarked) [Example 504, 3-{[1-(2-Chloro-phenyl)-5-hydroxy-1H-pyrazole-3-carbonyl]-amino}-3-(5-fluoro-2-methoxy-phenyl)-propionic acid]
IC50 [2]: 123 nM
IC50 [3]: 100 to 1000 nM

SMILES: Cc1cccc(C(CC(=O)O)NC(=O)c2cc(O)n(-c3ccccc3F)n2)c1C (centres unmarked) [Example 405]
IC50 [3]: < 100 nM

SMILES: COc1cccc([C@H](CC(=O)O)NC(=O)c2cc(O)n(-c3ccccc3F)n2)c1OC [Example 403]
IC50 [4]: 100 to 1000 nM

SMILES: O=C(O)C[C@H](NC(=O)c1cc(O)n(-c2ccccc2F)n1)c1ccc(Cl)cc1Cl [Example 117]
IC50 [4]: 100 to 1000 nM

SMILES: CC(C)(C)[C@](C)(O)COc1cc(C(=O)N[C@@H](CC(=O)O)c2ccc(F)cc2)nn1-c1ccccc1F [Example 880, (S)-3-(4-Fluoro-phenyl)-3-{[1-(2-fluoro-phenyl)-5-((S)-2-hydroxy-2,3,3-trimethyl-butoxy)-1H-pyrazole-3-carbonyl]-amino}-propionic acid]
IC50 [4]: < 100 nM

SMILES: Cc1cc(F)ccc1C(CC(=O)O)NC(=O)c1cc(O)n(-c2ccccc2F)n1 (centres unmarked) [Example 248]
IC50 [5]: 100 to 1000 nM

SMILES: Cc1ccc(C)c(-n2nc(C(=O)NC(CC(=O)O)c3ccccc3Cl)cc2O)c1 (centres unmarked) [Example 39]
IC50 [4]: 1000 to 30000 nM

SMILES: O=C(O)CC(NC(=O)c1cc(O)n(-c2cccc(Cl)c2)n1)c1cccc2c1OC(F)(F)O2 (centres unmarked) [Example 464, 3-{[1-(3-Chloro-phenyl)-5-hydroxy-1H-pyrazole-3-carbonyl]-amino}-3-(2,2-difluoro-benzo[1,3]dioxol-4-yl)-propionic acid]
IC50 [2]: 274 nM
IC50 [3]: 100 to 1000 nM

SMILES: O=C(O)CC(NC(=O)c1cc(O)n(-c2ccccc2F)n1)c1ccc(OC(F)(F)F)cc1 (centres unmarked) [Example 239]
IC50 [5]: 100 to 1000 nM

SMILES: Cc1ccccc1[C@H](CC(=O)O)NC(=O)c1cc(OC[C@](C)(O)C(C)C)n(-c2ccccc2F)n1 [Example 765, (S)-3-{[1-(2-Fluoro-phenyl)-5-((R)-2-hydroxy-2,3-dimethyl-butoxy)-1H-pyrazole-3-carbonyl]-amino}-3-o-tolyl-propionic acid]
IC50 [1]: < 100 nM

SMILES: O=C(O)CC(NC(=O)c1cc(O)n(-c2ccccc2F)n1)c1ccc(-c2ccc(F)cc2)cc1 (centres unmarked) [Example 126]
IC50 [4]: < 100 nM

SMILES: COc1cc(C(=O)N[C@@H](CC(=O)O)c2ccccc2C)nn1-c1ccccc1 [Example 534, (S)-3-[(5-Methoxy-1-phenyl-1H-pyrazole-3-carbonyl)-amino]-3-o-tolyl-propionic acid]
IC50 [3]: < 100 nM

SMILES: O=C(O)C[C@H](NC(=O)c1cc(O)n(-c2cccc(Cl)c2)n1)c1ccc(C(F)(F)F)cc1 [Example 256]
IC50 [5]: 1000 to 30000 nM

Continued, values first:

IC50 [1]: < 100 nM
SMILES: Cc1ccccc1[C@H](CC(=O)O)NC(=O)c1cc(OCc2c(F)cccc2F)n(-c2ccccc2F)n1 [Example 644]

IC50 [1]: < 100 nM
SMILES: Cc1ccccc1[C@H](CC(=O)O)NC(=O)c1cc(OC2CCCC2)n(-c2ccccc2F)n1 [Example 626]

IC50 [1]: 100 to 1000 nM
SMILES: Cc1ccccc1[C@H](CC(=O)O)NC(=O)c1cc(O)n(-c2cccc(S(N)(=O)=O)c2)n1 [Example 601]

IC50 [1]: 100 to 1000 nM
IC50 [2]: 459 nM
SMILES: Cc1ccc(C(CC(=O)O)NC(=O)c2cc(O)n(-c3ccccc3)n2)c(F)c1 (centres unmarked) [Example 564, 3-(2-Fluoro-4-methyl-phenyl)-3-[(5-hydroxy-1-phenyl-1H-pyrazole-3-carbonyl)-amino]-propionic acid]

IC50 [3]: 1000 to 30000 nM
SMILES: COc1cc(C(=O)N[C@@H](CC(=O)NCC#N)c2ccccc2C)nn1-c1ccccc1F [Example 926, 1-(2-Fluoro-phenyl)-5-methoxy-1H-pyrazole-3-carboxylic acid [(S)-2-(cyanomethyl-carbamoyl)-1-o-tolyl-ethyl]-amide]

IC50 [1]: < 100 nM
SMILES: CCOc1cc(C(=O)NC(CC(=O)O)c2ccc(F)cc2C)nn1-c1ccccc1Cl (centres unmarked) [Example 738]

IC50 [1]: < 100 nM
SMILES: Cc1c(F)cccc1C(CC(=O)O)NC(=O)c1cc(OCC2CC2)n(-c2ccccc2F)n1 (centres unmarked) [Example 684, 3-{[5-Cyclopropylmethoxy-1-(2-fluoro-phenyl)-1H-pyrazole-3-carbonyl]-amino}-3-(3-fluoro-2-methyl-phenyl)-propionic acid]
